Laboratory results as given in patent publication US20260001875A1, “AMINOPYRIMIDINYL DERIVATIVES FOR THE TREATMENT OF PARKINSON'S DISEASE” (UNIVERSITY OF DUNDEE, priority 2022, published 2026).
pEC50: −log10 of the molar value.

Columns and labels:
[1] = tested on: Rab10 pThr73; assay: Rab10 Thr73 dephosphorylation (immunoblot) in LRRK2^G2019S MEFs; format: cell-based, mouse; conditions: Mus musculus; for inhibition at 1 µM: read-out: pRab10 inhibited in LRRK2^G2019S MEFs; for pEC50: dose response, 4 h treatment, read-out: G2019S MEFs-pRab10-dephosphorylation EC50
[2] = tested on: Rab10 pThr73; assay: Rab10 Thr73 dephosphorylation (immunoblot) in WT MEFs; format: cell-based, mouse; conditions: Mus musculus; for inhibition at 0.033 µM / inhibition at 1 µM: read-out: pRab10 inhibited in WT MEFs; for pEC50: dose response, 4 h treatment, read-out: WT MEFs pRab10-dephosphrylation EC50
Procedure, shortened: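 Wild-type mouse embryonic fibroblasts in 6-well plates were treated with LRRK2 PROTACs, with two biological replicates per condition. Cells were washed in PBS and lysed on ice in buffer containing phosphatase and protease inhibitors plus 1% Triton X-100, then clarified at 15,000 g. Rab10 Thr73 phosphorylation was measured by quantitative immunoblotting of 15 to 20 μg protein on 4-12% Bis-Tris gels.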

[3] = tested on: Rab10 pThr73; assay: Rab10 Thr73 dephosphorylation (immunoblot) in LRRK2^G2019S MEFs; format: cell-based; conditions: Mus musculus, read-out: pRab10 inhibited in LRRK2^G2019S MEFs
[4] = biological target: T1, LRRK2^G2019S (Mus musculus, UniProt Q5S006, G2019S); assay: Western blot LRRK2 degradation in LRRK2^G2019S MEFs; format: cell-based; conditions: dose response, 4 h treatment; for Dmax: read-out: Dmax on G2019S MEFs
T1 construct: endogenous in cells; host or cells: LRRK2[G2019S] mouse embryonic fibroblasts (MEFs)
T1 sequence (Q5S006 whole entry G2019S): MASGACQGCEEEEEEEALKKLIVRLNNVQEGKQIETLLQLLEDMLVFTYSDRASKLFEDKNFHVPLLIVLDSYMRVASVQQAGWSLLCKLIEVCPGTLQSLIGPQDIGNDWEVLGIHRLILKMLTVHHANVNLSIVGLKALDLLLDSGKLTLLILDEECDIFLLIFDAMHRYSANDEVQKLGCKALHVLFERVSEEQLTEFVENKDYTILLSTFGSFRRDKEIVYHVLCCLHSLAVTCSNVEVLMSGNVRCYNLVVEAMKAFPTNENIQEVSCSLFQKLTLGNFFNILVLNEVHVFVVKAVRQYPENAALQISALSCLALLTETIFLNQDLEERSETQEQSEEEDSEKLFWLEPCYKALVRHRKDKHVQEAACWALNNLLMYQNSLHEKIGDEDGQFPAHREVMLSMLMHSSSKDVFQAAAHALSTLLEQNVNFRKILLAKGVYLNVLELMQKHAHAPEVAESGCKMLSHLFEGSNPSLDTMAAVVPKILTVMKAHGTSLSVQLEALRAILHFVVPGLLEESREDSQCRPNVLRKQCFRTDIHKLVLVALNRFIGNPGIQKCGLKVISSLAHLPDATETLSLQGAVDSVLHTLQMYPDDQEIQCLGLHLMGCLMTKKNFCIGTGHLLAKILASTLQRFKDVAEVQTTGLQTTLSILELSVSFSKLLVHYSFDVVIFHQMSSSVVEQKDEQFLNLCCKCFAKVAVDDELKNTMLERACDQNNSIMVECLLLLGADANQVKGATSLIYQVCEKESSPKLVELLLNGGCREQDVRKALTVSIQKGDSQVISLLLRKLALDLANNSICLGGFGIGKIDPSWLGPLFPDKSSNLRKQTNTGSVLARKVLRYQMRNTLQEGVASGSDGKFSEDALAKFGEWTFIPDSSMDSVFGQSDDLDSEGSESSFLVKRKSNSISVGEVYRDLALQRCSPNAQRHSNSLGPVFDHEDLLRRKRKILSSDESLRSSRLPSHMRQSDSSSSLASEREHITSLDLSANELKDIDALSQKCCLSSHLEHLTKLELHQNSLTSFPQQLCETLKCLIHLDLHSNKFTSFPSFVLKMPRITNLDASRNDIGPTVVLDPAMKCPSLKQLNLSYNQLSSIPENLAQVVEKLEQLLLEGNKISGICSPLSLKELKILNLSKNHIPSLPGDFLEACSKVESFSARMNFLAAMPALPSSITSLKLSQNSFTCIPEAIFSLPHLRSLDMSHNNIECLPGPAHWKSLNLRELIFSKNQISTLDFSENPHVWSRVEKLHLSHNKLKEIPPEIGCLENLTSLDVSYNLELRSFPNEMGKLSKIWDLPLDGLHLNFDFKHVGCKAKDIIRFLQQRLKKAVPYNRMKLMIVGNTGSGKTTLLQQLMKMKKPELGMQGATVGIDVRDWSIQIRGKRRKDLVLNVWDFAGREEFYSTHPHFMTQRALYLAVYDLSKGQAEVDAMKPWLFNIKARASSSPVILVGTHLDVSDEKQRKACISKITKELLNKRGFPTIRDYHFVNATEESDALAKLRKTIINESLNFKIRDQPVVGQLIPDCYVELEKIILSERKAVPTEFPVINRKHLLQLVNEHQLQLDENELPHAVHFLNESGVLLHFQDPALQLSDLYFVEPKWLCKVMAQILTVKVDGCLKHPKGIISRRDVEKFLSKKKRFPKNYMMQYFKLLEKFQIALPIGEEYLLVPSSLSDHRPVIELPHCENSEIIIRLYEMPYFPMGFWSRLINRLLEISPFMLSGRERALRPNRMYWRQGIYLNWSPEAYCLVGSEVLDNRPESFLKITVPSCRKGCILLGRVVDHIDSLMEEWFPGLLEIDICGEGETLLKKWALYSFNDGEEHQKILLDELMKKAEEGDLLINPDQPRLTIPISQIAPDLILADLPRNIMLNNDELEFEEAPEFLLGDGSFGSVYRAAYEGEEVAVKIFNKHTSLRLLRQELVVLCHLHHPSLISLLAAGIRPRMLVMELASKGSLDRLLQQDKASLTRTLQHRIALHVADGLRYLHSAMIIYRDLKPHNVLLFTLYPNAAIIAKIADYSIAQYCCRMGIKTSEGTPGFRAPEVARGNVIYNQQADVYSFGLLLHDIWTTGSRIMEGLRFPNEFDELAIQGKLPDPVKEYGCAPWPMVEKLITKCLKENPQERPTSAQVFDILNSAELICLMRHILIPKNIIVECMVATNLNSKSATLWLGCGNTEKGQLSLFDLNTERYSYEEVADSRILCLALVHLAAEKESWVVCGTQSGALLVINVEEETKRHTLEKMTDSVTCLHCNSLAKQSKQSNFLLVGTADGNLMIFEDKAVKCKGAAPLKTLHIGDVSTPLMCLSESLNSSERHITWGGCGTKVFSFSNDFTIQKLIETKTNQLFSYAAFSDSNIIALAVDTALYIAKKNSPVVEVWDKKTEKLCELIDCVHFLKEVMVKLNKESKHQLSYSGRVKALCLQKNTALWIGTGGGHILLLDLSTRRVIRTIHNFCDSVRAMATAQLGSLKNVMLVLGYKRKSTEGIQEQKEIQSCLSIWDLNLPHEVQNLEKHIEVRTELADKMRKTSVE
Experimental: (§1) The second-generation PROTACs were tested in parallel with the first generation PROTACs SD75, SD82, and SD100. The compounds were tested at 33 nM or […] concentrations for 4 hours or 24 hours, running two biological replicates per condition and achieving quantifications representative of both replicates. Analysis by quantitative immunoblotting was performed with readouts of the total LRRK2 (antibody recognizes epitope in C-terminus of protein), Rab10 pThr73 (physiological substrate) and LRRK2 pSer935 (biomarker phosphorylation site).
(§2) Primary MEFs were generated as described in a previous study (Wiggin et al., Mol. Cell Biol. 2002 April; 22(8):2871-81.). Briefly, the uterine horn was collected from adult female mice at day E12.5 and transferred to a 10 cm tissue culture dish containing cold PBS. Two forceps were used to tear the yolk sacs to isolate each embryo. Forceps were cleaned thoroughly with 70% ethanol between each embryo isolation. The embryos were culled, and a tissue piece was collected in a PCR tube for genotyping. The red tissue of the embryo, which grows to become the heart and liver, was removed. The remainder of the embryo was minced with a scalpel blade and incubated with 7.5 ml trypsin-EDTA solution for 10 minutes in a 37° C. tissue culture CO2 incubator. The dish was removed from the incubator and checked under a light microscope for single cells. 7.5 ml complete media was added to the trypsinised cells, and the cell suspension was transferred to a 15 ml Falcon tube, centrifuged at 1200 rpm for 5 minutes at room temperature. The trypsin was aspirated, the cell pellet was resuspended in 5 ml fresh complete media, and the cell suspension was plated in a 60 mm tissue culture dish and incubated in a 37° C., 5% CO2 tissue culture incubator. The MEFs at this stage were considered as passage 0 and were passaged and expanded for experimental use once the genotype was confirmed by allelic sequencing and immunoblotting. MEFs were cultured in Dulbecco's modified Eagle medium (DMEM) containing 10% (v/v) fetal bovine serum (FBS), 2 mM L-glutamine, 100 U/ml penicillin, and 100 μg/ml streptomycin supplemented with 1× non-essential amino acids and 1 mM sodium pyruvate.
Culturing and passaging of adherent cell lines were carried out using aseptic technique in CL1 or CL2 (for PBMC isolation) biological safety cabinets. All cells were incubated in a 37° C. incubator with 5% CO2. Cell lines were regularly tested for mycoplasma contamination. For western blot assay, the cells were seeded in 6-well plates. […] The cells were immediately placed on ice and were scraped and collected into 1.5 ml Eppendorf tubes. Cell lysates were incubated on ice for 10 minutes prior to centrifugation at 15,000 g at 4° C. for 15 minutes. The cell pellet was discarded, and supernatant was collected for analysis by quantitative immunoblotting. For long term storage, the supernatant was flash frozen and stored at −80° C. Protein concentrations of cell lysates were determined using the Bradford assay.
Cell lysates containing a quarter of a volume of 4× NuPAGE LDS sample buffer (NP0007) supplemented with 5% β-mercaptoethanol, were heated at 95° C. for 5 minutes. 15 to 20 μg of samples were loaded onto pre-cast 4-12% Bis-Tris midi 20W or 26W gels (Thermofisher Scientific®, Cat #WG1402BOX or WG1403BOX) and resolved at 130 V for 2 hours with NuPAGE MOPS SDS running buffer (Thermofisher Scientific® Cat #NP0001-02). Proteins were electrophoretically transferred onto a 0.45 μm nitrocellulose membrane (GE Healthcare, Amersham Protran® Supported 0.45 mm NC) at 90 V for 90 min on ice in transfer buffer (48 mM Tris base and 39 mM glycine supplemented with 20% methanol). The transferred membrane was blocked with 5% (w/v) skim milk powder dissolved in tris-buffered saline with tween (TBS-T) (50 mM Tris base, 150 mM sodium chloride (NaCl), 0.1% (v/v) Tween-20) at room temperature for 1 hour.

[5] = biological target: T2, LRRK2^WT (Mus musculus, UniProt Q5S006); assay: Western blot LRRK2 degradation in WT MEFs; format: cell-based; conditions: dose response, 4 h treatment; for Dmax: read-out: Dmax on WT MEFs
T2 construct: endogenous in cells; host or cells: primary wild-type mouse embryonic fibroblasts (MEFs)
T2 sequence (Q5S006 whole entry): as the sequence (Q5S006 whole entry G2019S) above, with S2019G counted along it
Experimental: as §1, with “Western blot degradation assays for the LRRK2 protacs were performed with WT and PD-associated LRRK2 [G2019S] mouse embryonic fibroblasts (MEFs). The second-generation” for “The second-generation”
as §2
Culturing and passaging of adherent cell lines were carried out using aseptic technique in CL1 or CL2 (for PBMC isolation) biological safety cabinets. All cells were incubated in a 37° C. incubator with 5% CO2. Cell lines were regularly tested for mycoplasma contamination. For western blot assay, the cells were seeded in 6-well plates. After treating with testing compounds at indicated concentrations and time period, the media was removed and the cells were washed with PBS and lysed in 100 μl ice-cold complete lysis buffer containing 50 mM Tris-HCl pH 7.4, 1 mM EGTA, 10 mM 2-glycerophosphate, 50 mM sodium fluoride, 5 mM sodium pyrophosphate, 270 mM sucrose, supplemented with 1 μg/ml microcystin-LR, 1 mM sodium orthovanadate, complete EDTA-free protease inhibitor cocktail (Roche) and 1% (v/v) Triton X-100. The cells were immediately placed on ice and were scraped and collected into 1.5 ml Eppendorf tubes. Cell lysates were incubated on ice for 10 minutes prior to centrifugation at 15,000 g at 4° C. for 15 minutes. The cell pellet was discarded, and supernatant was collected for analysis by quantitative immunoblotting. For long term storage, the supernatant was flash frozen and stored at −80° C. Protein concentrations of cell lysates were determined using the Bradford assay.
Cell lysates containing a quarter of a volume of 4× NuPAGE LDS sample buffer (NP0007) supplemented with 5% β-mercaptoethanol, were heated at 95° C. for 5 minutes. […]

Work on CNc1nc(Nc2ccc(OC3CCN(C[C@H]4CC[C@H](CSC(C)(C)C(NC(=O)C5(F)CC5)C(=O)N5C[C@H](O)C[C@H]5C(=O)NCc5ccc(-c6scnc6C)cc5)CC4)CC3)cc2OC)ncc1Cl (stereo partly drawn) [XL02017, (2S,4R)-1-((S)-3-((((1R,4S)-4-((4-(4-((5-chloro-4-(methylamino)pyrimidin-2-yl)amino)-3-methoxyphenoxy)piperidin-1-yl)methyl)cyclohexyl)methyl)thio)-2-(1-fluorocyclopropane-1-carboxamido)-3-methylbutanoyl)-4-hydroxy-N-(4-(4-methylthiazol-5-yl)benzyl)pyrrolidine-2-carboxamide] yielded an inhibition at 1 µM ([1]; 1 μM/4 h treatment) of 10 to 100%, an inhibition at 1 µM ([1]; 1 μM/24 h treatment) of 80 to 100% and a pEC50 [1] of 7.60. The inhibition at 0.033 µM ([2]; 33 nM/4 h treatment) was 0 to 70%, the inhibition at 0.033 µM ([2]; 33 nM/24 h treatment) was 0 to 80% and the inhibition at 1 µM ([2]; 1 μM/4 h treatment) was 80 to 100%. It also gave an inhibition at 1 µM ([2]; 1 μM/24 h treatment) of 80 to 100%, a pEC50 [2] of 7.08 and an inhibition at 0.033 µM ([3]; 33 nM/4 h treatment) of 0 to 90%. It also gave an inhibition at 0.033 µM ([3]; 33 nM/24 h treatment) of 30 to 90%, a DC50 [4] of 22 nM and a Dmax [4] of 79%. The DC50 [5] was 44 nM and the Dmax [5] was 68%.

Work on CNc1nc(Nc2ccc(C(=O)N3CCN(C[C@H]4CC[C@@H](CSC(C)(C)[C@H](NC(=O)C5(F)CC5)C(=O)N5C[C@H](O)CC5C(=O)N[C@@H](C)c5ccc(-c6scnc6C)cc5)CC4)CC3)cc2OC)ncc1Cl (stereo partly drawn) [XL02060, (2S,4R)-1-((R)-3-((((1s,4S)-4-((4-(4-((5-chloro-4-(methylamino)pyrimidin-2-yl)amino)-3-methoxybenzoyl)piperazin-1-yl)methyl)cyclohexyl)methyl)thio)-2-(1-fluorocyclopropane-1-carboxamido)-3-methylbutanoyl)-4-hydroxy-N—((S)-1-(4-(4-methylthiazol-5-yl)phenyl)ethyl)pyrrolidine-2-carboxamide] yielded an inhibition at 1 µM ([1]; 1 μM/4 h treatment) of 10 to 100%, an inhibition at 1 µM ([1]; 1 μM/24 h treatment) of 80 to 100% and a pEC50 [1] of 7.57. The inhibition at 0.033 µM ([2]; 33 nM/4 h treatment) was 0 to 70%, the inhibition at 0.033 µM ([2]; 33 nM/24 h treatment) was 0 to 80% and the inhibition at 1 µM ([2]; 1 μM/4 h treatment) was 80 to 100%. For the same compound, the inhibition at 1 µM ([2]; 1 μM/24 h treatment) was 80 to 100%, the pEC50 [2] was 7.49 and the inhibition at 0.033 µM ([3]; 33 nM/4 h treatment) was 0 to 90%. It also gave an inhibition at 0.033 µM ([3]; 33 nM/24 h treatment) of 30 to 90%, a Dmax [4] of 78.5% and a Dmax [5] of 71%.

Work on CNc1nc(Nc2ccc(C(=O)N3CCC4(CCN(C[C@H]5CC[C@H](CSC(C)(C)C(NC(=O)C6(F)CC6)C(=O)N6C[C@H](O)C[C@H]6C(=O)NCc6ccc(-c7scnc7C)cc6)CC5)CC4)CC3)cc2OC)ncc1Cl (stereo partly drawn) [XL02038, (2S,4R)-1-((S)-3-((((1R,4S)-4-((9-(4-((5-chloro-4-(methylamino)pyrimidin-2-yl)amino)-3-methoxybenzoyl)-3,9-diazaspiro[5.5]undecan-3-yl)methyl)cyclohexyl)methyl)thio)-2-(1-fluorocyclopropane-1-carboxamido)-3-methylbutanoyl)-4-hydroxy-N-(4-(4-methylthiazol-5-yl)benzyl)pyrrolidine-2-carboxamide] yielded an inhibition at 1 µM ([1]; 1 μM/4 h treatment) of 10 to 100%, an inhibition at 1 µM ([1]; 1 μM/24 h treatment) of 80 to 100% and a pEC50 [1] of 8.00. It also gave an inhibition at 0.033 µM ([2]; 33 nM/4 h treatment) of 0 to 70%, an inhibition at 0.033 µM ([2]; 33 nM/24 h treatment) of 0 to 80% and an inhibition at 1 µM ([2]; 1 μM/4 h treatment) of 80 to 100%. The inhibition at 1 µM ([2]; 1 μM/24 h treatment) was 80 to 100%, the pEC50 [2] was 7.85 and the inhibition at 0.033 µM ([3]; 33 nM/4 h treatment) was 0 to 90%. It also gave an inhibition at 0.033 µM ([3]; 33 nM/24 h treatment) of 30 to 90%, a Dmax [4] of 79% and a Dmax [5] of 65%.

CNc1nc(Nc2ccc(C(=O)N3CCN(C[C@H]4CC[C@H](CSC(C)(C)[C@H](NC(=O)C5(F)CC5)C(=O)N5C[C@H](O)CC5C(=O)NCc5ccc(-c6scnc6C)cc5C)CC4)CC3)cc2OC)ncc1Cl (stereo partly drawn) [XL02048, (2S,4R)-1-((R)-3-((((1R,4R)-4-((4-(4-((5-chloro-4-(methylamino)pyrimidin-2-yl)amino)-3-methoxybenzoyl)piperazin-1-yl)methyl)cyclohexyl)methyl)thio)-2-(1-fluorocyclopropane-1-carboxamido)-3-methylbutanoyl)-4-hydroxy-N-(2-methyl-4-(4-methylthiazol-5-yl)benzyl)pyrrolidine-2-carboxamide] was tested, and the inhibition at 1 µM ([1]; 1 μM/4 h treatment) was 10 to 100%, the inhibition at 1 µM ([1]; 1 μM/24 h treatment) was 80 to 100% and the pEC50 [1] was 7.28. It also gave an inhibition at 0.033 µM ([2]; 33 nM/4 h treatment) of 0 to 70%, an inhibition at 0.033 µM ([2]; 33 nM/24 h treatment) of 0 to 80% and an inhibition at 1 µM ([2]; 1 μM/4 h treatment) of 80 to 100%. The inhibition at 1 µM ([2]; 1 μM/24 h treatment) was 80 to 100%, the pEC50 [2] was 7.14 and the inhibition at 0.033 µM ([3]; 33 nM/4 h treatment) was 0 to 90%. The inhibition at 0.033 µM ([3]; 33 nM/24 h treatment) was 30 to 90%, the DC50 [4] was 23 nM and the Dmax [4] was 83.5%. The DC50 [5] was 46 nM and the Dmax [5] was 81.5%.
